Assay results taken from US20230181745A1, “ZINC COMPLEXES AND THEIR USES” (Demuris Limited, priority 2020, published 2023).

Tests used:
[1] = tested on: Schizosaccharomyces pombe; experiment: Filter disc assay on a lawn of S. pombe; type: cell-based; details: for bioactivity against S. pombe (haloes/zones of inhibition), relative: zinc complexed versus zinc-free form, tested in parallel
Experimental: The silica powder with the S149 compound adsorbed onto it was divided into two equal portions of ˜7.5 g and each portion was used in normal phase “flash” chromatography using a Biotage™ Isolera™ machine and a Biotage™ KP-Sil 50 g column. A chloroform-methanol gradient was used to elute the bound material from the silica in which the percentage of methanol went from 0%-100%. No formic acid was added to the solvents as this degrades the bioactive compound. The eluate from the column was fractionated and the presence of the bioactive compound (S149) determined using the “Filter disc assay” method as described in the “Materials and Methods” of Lewis et al., 2017. The active fractions eluted from the two normal phase chromatography columns were pooled, and after removal of the solvent using a GeneVac™ Series U system equipped with a GeneVac™ VC3000TA condenser unit, the dried material was resuspended in 5 ml of methanol which was loaded onto a size exclusion column. The column was run at a flow rate of 1 ml/min with 1,200 ml of methanol and the eluate fractionated. The bioactive fractions, as determined using the “Filter disc assay” method as described in the “Materials and Methods” of Lewis et al., 2017, were pooled to give ˜15 ml of material which was diluted with 60 ml of water to give 75 ml of a 20% methanol solution. This was used in reverse phase chromatography using a Biotage™ Isolera™ chromatography machine in which the bioactive material was loaded by injection onto a C18 SNAP Ultra 12 g Biotage™ column and eluted using an acetonitrile-water gradient where the percentage of acetonitrile was increased from 20%-100%.
An example of the u.v. absorbance pattern (λ=254 nm) is shown in FIG. 1 and indicates the presence of four peaks labelled 0-3. An integrated fraction collector was used to peak-pick material and collect column eluate corresponding to the peaks which were then bioassayed using the “Filter disc assay” method as described in the “Materials and Methods” of Lewis el al., 2017.

[2] = target: forkhead transcription factor, Foxo3a (Homo sapiens, UniProt O43524); details: published by Kawahara et al., 2015; cited from earlier work
forkhead transcription factor, Foxo3a, sequence (O43524 whole entry): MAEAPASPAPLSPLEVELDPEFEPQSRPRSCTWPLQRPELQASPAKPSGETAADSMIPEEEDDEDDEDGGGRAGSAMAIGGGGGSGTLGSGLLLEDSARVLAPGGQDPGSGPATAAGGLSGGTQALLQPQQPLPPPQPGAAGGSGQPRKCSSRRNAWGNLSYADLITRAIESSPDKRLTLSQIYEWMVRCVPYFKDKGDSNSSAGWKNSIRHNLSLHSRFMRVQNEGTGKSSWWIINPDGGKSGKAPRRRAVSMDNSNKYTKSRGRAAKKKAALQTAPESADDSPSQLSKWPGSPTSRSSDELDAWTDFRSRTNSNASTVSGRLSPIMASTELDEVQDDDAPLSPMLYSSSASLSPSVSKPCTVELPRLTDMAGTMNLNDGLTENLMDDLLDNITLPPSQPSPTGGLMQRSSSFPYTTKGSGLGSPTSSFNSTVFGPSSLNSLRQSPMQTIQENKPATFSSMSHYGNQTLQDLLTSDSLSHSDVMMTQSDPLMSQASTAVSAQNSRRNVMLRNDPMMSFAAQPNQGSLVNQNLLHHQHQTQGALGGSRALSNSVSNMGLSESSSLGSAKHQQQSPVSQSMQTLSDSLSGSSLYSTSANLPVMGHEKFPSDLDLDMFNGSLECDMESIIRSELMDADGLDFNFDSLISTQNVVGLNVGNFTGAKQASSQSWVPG

SMILES | time for haloes in the S. pombe lawn around impregnated discs to develop ([1]; filter discs impregnated with HPLC peak material) | bioactivity against S. pombe (haloes/zones of inhibition), relative [1] | bioactivity against S. pombe (haloes/zones of inhibition), relative ([1]; listed as JBIR 141) | bioactivity against S. pombe (haloes/zones of inhibition), relative ([1]; listed as Peak 0) | inhibition of the transcriptional activity of Foxo3a [2]
CC(=O)O[C@@H]([C@H](CCCN(O)N=O)NC(=O)[C@H]1N=C([C@H](C)N(C)C)O[C@@H]1C)C(C)(C)C(=O)O[C@H](C(=O)C1=C(O)[C@H](C)N(C)C1=O)C(C)C [JBIR-141] | ~48 h | not as bioactive as the zinc complexed form | not as bioactive as the zinc complexed form | lower than the bioactivity of the material from the other peaks | possess the ability to inhibit the transcriptional activity
CC(=O)O[C@@H]([C@H](C[C@@H](O)CN(O)N=O)NC(=O)[C@H]1N=C([C@H](C)N(C)C)O[C@@H]1C)C(C)(C)C(=O)O[C@H](C(=O)C1=C(O)[C@H](C)N(C)C1=O)C(C)C [JBIR-142] | – | – | – | – | possess the ability to inhibit the transcriptional activity
